Common to all, as to assay: DTP human tumour cell line panel, 48 h
Experiment [1] relates to LOX IMVI melanoma.
The test system of experiment [2] is MDA-MB-231 breast.
Experiment [3] has as its system OVCAR-8 ovarian.
Experiment [4] concerns HOP-62 NSCLC.
For experiment [5], the system named is MDA-N.
Experiment [6] concerns 786-0 renal.
In experiment [7] the test system is HL-60(TB) leukemia.
The test system of experiment [8] is DU-145 prostate.
For experiment [9], the system named is NCI-H460 lung.
Experiment [10] concerns HCC-2998 colon.
The test system of experiment [11] is T-47D breast.

Experimental findings from PubChem BioAssay (NCI) are described below.

The structures appear in SMILES notation. Several values for one entry are separate records, joined by “and”; a condition that tells them apart may be missing. Equal entries are not always repeated.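 Briefly, cells in 96-well plates were exposed to five compound concentrations for 48 h, and endpoints were estimated by linear interpolation. At the TGI there is no net growth.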 *1 amine or outer side, *2 acyl side, *3 side chain or, on linkers, in order; H or OH if unused. Where a SMILES comes first, the peptide text is derived from it. Bridges are numbered along the chain shown (N, C = ends). Roman numbers before positions name the chains, in order. [ ]: non-standard residue; d: D form. Actinocin(9to1) = Cc1c2oc3c(C)ccc(C(=O)[*:1])c3nc-2c(C(=O)[*:2])c(N)c1=O; Hyp = O=C(O)[CH]1C[CH](O)CN1; NMeV = CN[CH](C(=O)O)C(C)C; Sar = CNCC(=O)O

Broadly, the TGI is the concentration giving total growth inhibition. Lower therefore signals more potent growth arrest.

For `CCOC(=O)/C=C(\C(=O)OCC)n1cc(Cl)c(=O)n(CC(=O)OCC)c1=O`, the TGI in experiment [1] stood at 11.2 µM; in experiment [2], 30.3 µM; in [3], 8.59 µM; in experiment [4], 33.7 µM; in [5], 24 µM; in experiment [6] it was 3.14 µM. Also, the total growth inhibition concentration (TGI) in experiment [7] is 7.39 µM; in experiment [8], 31.1 µM; in [9], 51.1 µM; in experiment [10] it was 37.5 µM; in [11] it was 4.12 µM.
With `COC(=O)[C@]1(c2cc3ccccc3[nH]2)CC2CN(C(=O)OCc3ccccc3)C1CC2=O` (some centres not stated), the total growth inhibition concentration (TGI) is 66.6 µM in experiment [1]; 32.4 µM in [2]; over 100 µM in [3]; over 100 µM in experiment [4]; over 100 µM in experiment [5]; over 100 µM in [6]. Also, the TGI was 44.4 µM in experiment [7]; over 100 µM in experiment [8]; 77.6 µM in [9]; over 100 µM in experiment [10]; 76.2 µM in experiment [11].
For `O=c1[nH]nc(Cc2ccccc2)n1/N=C/c1cccnc1`, the TGI in [1], in [2], in [3], in [4], in experiment [5] and in experiment [6] was over 100 µM throughout. For the same molecule, the TGI in experiment [7], in experiment [8], in experiment [9], in experiment [10] and in [11] was over 100 µM throughout.
For the molecule `Cc1c(C)c(C)c(-n2c(=O)n(C)c(=O)n2-c2cc(C(C)(C)C)cc(C(C)(C)C)c2O)c(C)c1C`, the TGI is 26.8 µM in experiment [1]; 17 µM in experiment [2]; 22.7 µM in experiment [3]; 28 µM in experiment [4]; 22.9 µM in [5]; 22.4 µM in experiment [6]. The TGI in experiment [7] was determined as 11.4 µM; in experiment [8], 25.9 µM; in [9] it was 27.1 µM; in [10], 24.6 µM; in experiment [11] it was 18.6 µM.
Regarding `O=C(N/N=C\c1cccc2ccccc12)Nc1cccc2ccccc12`, the TGI in experiment [1] was over 100 µM; in [2], 45.8 µM; in experiment [3], over 100 µM; in experiment [4] it was 23.1 µM; in experiment [5], 21.2 µM; in experiment [6], 28.1 µM. The total growth inhibition concentration (TGI) in experiment [7] is 60.8 µM; in experiment [8], over 100 µM; in experiment [9], over 100 µM; in experiment [10] it was over 100 µM; in experiment [11], over 100 µM.
Take `O=[N+]([O-])c1cc2ccc(N(CCO)CCO)nc2nc1N(CCO)CCO`: the concentration for total growth inhibition (TGI) in [1], in experiment [2], in [3], in [4], in experiment [5] and in [6] was over 100 µM in each case. Moreover, the TGI in experiment [7], in experiment [8], in experiment [9], in [10] and in experiment [11] was over 100 µM throughout.
Take `Cc1ccc(S(=O)(=O)N/N=C2\CC3CC4CCC2C4C3)cc1` (configuration not stated): the TGI in experiment [1], in experiment [2], in [3], in [4], in experiment [5] and in [6] was over 100 µM throughout. Further, the concentration for total growth inhibition (TGI) in experiment [7], in experiment [8], in experiment [9], in experiment [10] and in experiment [11] was over 100 µM in each case.
With `Cc1nc2c(cc1OCc1ccccc1)C(=O)C1=C(C2=O)C2OC(=O)CC2OC1(C)C` (configuration not stated), the TGI in experiment [1] worked out at 0.475 µM; in [2] it was 1.51 µM; in experiment [3], 12.3 µM; in experiment [4], 2.87 µM; in experiment [5] it was 1.75 µM; in experiment [6], 1.07 µM. In addition, the total growth inhibition concentration (TGI) in experiment [7] worked out at 0.371 µM; in [8], 3.09 µM; in experiment [9] it was 2.9 µM; in experiment [10], 1.91 µM; in experiment [11] it was 1.23 µM.
With `O[C@@H]1CCC[C@@H]2NC[C@@H](c3ccc4c(c3)OCO4)[C@H]12`, the TGI in experiment [1], in experiment [2], in experiment [3], in experiment [4], in experiment [5] and in [6] was over 100 µM each time. The total growth inhibition concentration (TGI) in experiment [7], in [8], in experiment [9], in experiment [10] and in experiment [11] was over 100 µM in each case.
As for `O=C(O)c1c2c(cc3c1CC1(Cc4cc5c(cc4C1=O)CCC5)C3)CCC2` (configuration not stated), the TGI in experiment [1], in [2], in experiment [3], in [4], in experiment [5] and in experiment [6] was over 100 µM throughout. Besides, the TGI in experiment [7], in experiment [8], in experiment [9], in experiment [10] and in experiment [11] was over 100 µM each time.
Take `Cc1cc(S(=O)(=O)Nc2nncn2-c2ccc(Cl)cc2)c(S)cc1Cl`: the concentration for total growth inhibition (TGI) in experiment [1], in experiment [2], in experiment [3], in [4], in [5] and in experiment [6] was over 10 µM in each case. The TGI in [7], in [8], in experiment [9], in [10] and in [11] was over 10 µM in each case.
Consider `Cc1cc2c(c(S(=O)(=O)c3ccccc3[N+](=O)[O-])c1)NCCC2`, for which the TGI in experiment [1], in [2], in experiment [3], in experiment [4], in experiment [5] and in [6] was over 100 µM throughout. For the same molecule, the concentration for total growth inhibition (TGI) is over 100 µM in experiment [7]; over 100 µM in [8]; over 100 µM in [9]; over 100 µM in experiment [10]; 40.2 µM in experiment [11].
In the case of `CC(C)(C)NC(=O)/C(=C\Sc1ccccc1)c1ccccc1`, the total growth inhibition concentration (TGI) in experiment [1] was over 79.4 µM; in [2], over 100 µM; in experiment [3], over 100 µM; in experiment [4], over 100 µM; in experiment [5], over 100 µM; in experiment [6], over 100 µM. Further, the TGI in experiment [7], in experiment [8], in experiment [9], in experiment [10] and in [11] was over 100 µM throughout.
Consider `COC(=O)c1c(C)cccc1C1CN=NC12Cc1cc(C)cc(C)c1C2=O` (configuration not stated), for which the concentration for total growth inhibition (TGI) in experiment [1] is 41.5 µM; in [2] it was 98.2 µM; in experiment [3], over 100 µM; in experiment [4], over 100 µM; in experiment [5] it was over 100 µM; in [6], over 100 µM. The total growth inhibition concentration (TGI) in experiment [7] was 44.2 µM; in [8], over 100 µM; in experiment [9], over 100 µM; in [10] it was 68 µM; in experiment [11] it was over 100 µM.
With `COc1ccc(NC(C(N)=O)c2cc3cc(Br)ccc3nc2Cl)cc1` (configuration not stated), the TGI in experiment [1], in experiment [2], in [3], in experiment [4], in experiment [5] and in [6] was over 100 µM each time. Besides, the TGI in experiment [7], in experiment [8], in experiment [9], in experiment [10] and in experiment [11] was over 100 µM throughout.
`CCOC(=O)CCN1C(=O)C(=O)N(c2ccc(OC)cc2)C1=S`: the TGI in experiment [1], in experiment [2], in experiment [3], in [4], in experiment [5] and in experiment [6] was over 100 µM throughout. Also, the total growth inhibition concentration (TGI) in [7], in [8], in [9], in [10] and in experiment [11] was over 100 µM each time.
`O=[N+]([O-])c1cc(F)ccc1S(=O)(=O)c1ccccc1`: the TGI in experiment [1], in experiment [2], in experiment [3], in experiment [4], in experiment [5] and in experiment [6] was over 10 µM in each case. Moreover, the total growth inhibition concentration (TGI) in experiment [7], in experiment [8], in experiment [9], in experiment [10] and in [11] was over 10 µM throughout.
As for `C=CC(=O)N1C/C(=C\c2ccc([N+](=O)[O-])cc2)C(=O)/C(=C/c2ccc([N+](=O)[O-])cc2)C1`, the concentration for total growth inhibition (TGI) in experiment [1] was found to be 0.18 µM; in [2], 0.278 µM; in experiment [3], 0.727 µM; in experiment [4], 0.375 µM; in experiment [5], 0.856 µM; in experiment [6], 0.249 µM. For the same molecule, the TGI in experiment [7] was over 100 µM; in experiment [8], 2.36 µM; in experiment [9], 1.21 µM; in experiment [10], 1.21 µM; in [11], 1.79 µM.
As to `COC1=C(C)C(=O)C2=C(C1=O)C1C3CC4=C(C(=O)C(OC)=C(C)C4=O)C(CNC(=O)C(C)O)N3C(C#N)C(C2)N1C` (configuration not stated), the TGI was 0.0263 µM in experiment [1]; 0.0178 µM in experiment [2]; 1.32 µM in experiment [3]; under 0.0282 µM in experiment [4]; under 0.0107 µM in experiment [5]; 1.24 µM in experiment [6]. Also, the total growth inhibition concentration (TGI) is under 0.01 µM in experiment [7]; 0.0566 µM in [8]; 0.179 µM in experiment [9]; under 0.0272 µM in [10]; under 0.01 µM in experiment [11].
Turning to `COc1ccc2c(c1)NC1(CCN(CCCC(=O)c3ccc(F)cc3)CC1)N=N2`, the TGI in experiment [1] was found to be 35.3 µM; in [2], 45.7 µM; in [4], 60.3 µM; in experiment [5], 31.6 µM; in [6], 36.9 µM; in experiment [7] it was 32.8 µM. Also, the concentration for total growth inhibition (TGI) is 46.8 µM in [8], 93.5 µM in experiment [9], 28.2 µM in [10] and 53.5 µM in experiment [11].
Regarding `Cc1c2oc3c(C)ccc(C(=O)NC4C(=O)NC(C(C)C)C(=O)N5CC(O)CC5C(=O)N(C)CC(=O)N(C)C(C(C)C)C(=O)OC4C)c3nc-2c(C(=O)NC2C(=O)NC(C(C)C)C(=O)N3CC(O)CC3C(=O)N(C)CC(=O)N(C)C(C(C)C)C(=O)OC2C)c(N)c1=O` (configuration not stated) (I: TV[Hyp][Sar][NMeV] / II: TV[Hyp][Sar][NMeV]; ester I:1-I:C, II:1-II:C; linker I:N-II:N via Actinocin(9to1); configuration not given here), the TGI in experiment [1], in experiment [2], in experiment [3], in experiment [4], in [5] and in [6] was over 1 µM each time. Moreover, the TGI in experiment [7], in [8], in experiment [9], in [10] and in experiment [11] was over 1 µM throughout.
With `O=C(C/C(=N/O)C(F)(F)F)c1cccs1`, the total growth inhibition concentration (TGI) in [1], in experiment [2], in experiment [3], in experiment [4], in [5] and in experiment [6] was over 100 µM throughout. Moreover, the total growth inhibition concentration (TGI) in experiment [7], in experiment [8], in [9], in experiment [10] and in experiment [11] was over 100 µM throughout.
On to `Cc1ccc(N=Nc2c(O)ccc3cc(S(=O)(=O)O)ccc23)cc1`, for which the TGI in experiment [1] was > 100 µM and 38.2 µM; in [2] it was > 100 µM and 45.7 µM; in experiment [3], over 100 µM; in [4], over 100 µM; in experiment [5], over 100 µM; in experiment [6], > 100 µM and 25.2 µM. The total growth inhibition concentration (TGI) in [7], in experiment [8], in experiment [9], in experiment [10] and in [11] was over 100 µM each time.
